Assays:
Format in all cases: toxicity, cell-based
U2OS = assay: Incucyte cell viability with U2OS; conditions: human, 10 µM, compound concentration 10 uM
HEK-293T = assay: Incucyte cell viability with HEK293T; conditions: human, 10 µM, compound concentration 10 uM
Fibroblast = assay: Incucyte cell viability with human fibroblast; conditions: 10 µM, compound concentration 10 uM
Also: unitless GR value; below 1 slowed growth and below 0 cell loss.

| Compound | Growth Rate (U2OS; 0 h, replicate number 1) | Growth Rate (U2OS; 0 h, replicate number 2) | Growth Rate (U2OS; 24 h, replicate number 1) | Growth Rate (HEK-293T; 0 h, replicate number 1) | Growth Rate (Fibroblast; 0 h, replicate number 1) | Growth Rate (Fibroblast; 6 h, replicate number 1) | Growth Rate (Fibroblast; 12 h, replicate number 2) | Growth Rate (Fibroblast; 24 h, replicate number 2) | Growth Rate (HEK-293T; 0 h, replicate number 2) | Growth Rate (HEK-293T; 6 h, replicate number 2) | Growth Rate (HEK-293T; 12 h, replicate number 1) | Growth Rate (HEK-293T; 12 h, replicate number 2) | Growth Rate (HEK-293T; 18 h, replicate number 1) | Growth Rate (HEK-293T; 18 h, replicate number 2) | Growth Rate (HEK-293T; 24 h, replicate number 1) | Growth Rate (HEK-293T; 24 h, replicate number 2) | Growth Rate (U2OS; 12 h, replicate number 2) | Growth Rate (U2OS; 18 h, replicate number 2) | Growth Rate (U2OS; 24 h, replicate number 2) | Growth Rate (HEK-293T; 6 h, replicate number 1) | other results |
| --- | --- | --- | --- | --- | --- | --- | --- | --- | --- | --- | --- | --- | --- | --- | --- | --- | --- | --- | --- | --- | --- |
| CCOC(=O)c1c(/C(C#N)=C\N)c2ccc(Cl)c(Cl)c2n1C | -0.98 | 0.82 | 0.94 | 0.22 | 0.55 | -0.96 | 0.88 | 0.9 | – | – | – | – | – | – | – | – | – | – | – | – | Growth Rate (U2OS; 6 h, replicate number 1): 0.92; Growth Rate (U2OS; 12 h, replicate number 1): 0.97; Growth Rate (Fibroblast; 18 h, replicate number 1): 0.7; Growth Rate (Fibroblast; 24 h, replicate number 1): 0.75 |
| CN[C@@H](C)C(=O)N[C@H]1CCCC[C@H]2CC[C@@H](C(=O)N[C@@H](c3ccccc3)c3cn(CCCCc4ccc(CCCCn5cc([C@@H](NC(=O)[C@@H]6CC[C@@H]7CCCC[C@H](NC(=O)[C@H](C)NC)C(=O)N76)c6ccccc6)nn5)cc4)nn3)N2C1=O | -0.95 | -0.89 | – | 0.64 | 0.3 | – | 0.88 | 0.66 | 0.24 | 0.99 | 0.83 | 0.77 | 0.72 | 0.74 | 0.65 | 0.84 | – | – | – | – | Growth Rate (Fibroblast; 6 h, replicate number 2): 0.06; Growth Rate (Fibroblast; 18 h, replicate number 1): 0.61; Growth Rate (Fibroblast; 18 h, replicate number 2): 0.55 |
| COc1cc(/C=C(\C#N)C(=O)Nc2nnc(C(F)(F)F)s2)ccc1OCc1ccc(C(F)(F)F)cc1C(F)(F)F | 0.49 | – | 0.97 | 0.87 | -0.12 | – | 0.17 | 0.86 | – | 0.92 | 0.72 | 0.82 | 0.91 | – | 1 | 0.98 | 0.81 | 0.85 | 0.87 | 0.32 | Growth Rate (U2OS; 6 h, replicate number 1): 0.84; Growth Rate (U2OS; 6 h, replicate number 2): 0.63; Growth Rate (Fibroblast; 12 h, replicate number 1): -0.69; Growth Rate (Fibroblast; 18 h, replicate number 1): 0.9; Growth Rate (Fibroblast; 18 h, replicate number 2): 0.84; Growth Rate (Fibroblast; 24 h, replicate number 1): 0.17 |
| Cc1[nH]nc2ccc(-c3cncc(OCC(N)Cc4c[nH]c5ccccc45)c3)cc12 (centres undefined) | – | 0.54 | 0.09 | -0.53 | – | -1 | – | 0.21 | -0.56 | – | – | 0.41 | 0.65 | 0.08 | 0.19 | -0.02 | – | – | 0.13 | – | Growth Rate (U2OS; 18 h, replicate number 1): 0.51; Growth Rate (Fibroblast; 18 h, replicate number 2): 0.88 |
| Cc1[nH]nc2ccc(-c3cncc(OCC(N)Cc4ccccc4)c3)cc12 (centres undefined) | – | – | 0.35 | -0.76 | – | -1 | – | 0.73 | -0.85 | – | – | – | – | 0.44 | 0.9 | 0.21 | – | 0.7 | 0.28 | – | Growth Rate (Fibroblast; 0 h, replicate number 2): -0.26 |
| CCn1c(-c2ccncc2)cc2c1CCNC2=O | -0.56 | 0.39 | 0.13 | -0.57 | -0.22 | -0.99 | – | – | -0.66 | -0.3 | -0.65 | -0.55 | -0.57 | -0.47 | -0.56 | -0.39 | 0.44 | 0.12 | 0.08 | 0.22 | Growth Rate (U2OS; 12 h, replicate number 1): 0.78; Growth Rate (U2OS; 18 h, replicate number 1): 0.29 |
| Nc1ccc(-c2cnc(N)c(-c3ccc(Cl)cc3)c2)cn1 | -0.24 | -0.83 | – | -0.26 | 0.71 | -1 | – | – | -0.3 | – | – | – | – | 0.92 | – | 0.78 | – | – | – | – | Growth Rate (Fibroblast; 0 h, replicate number 2): -0.5 |
| CCCOc1cnc(CN/C=C2\C(=O)NC(=O)c3ccc(I)cc32)cc1O | – | -1 | 0.07 | 0.51 | 0.29 | -0.88 | -0.06 | 0.16 | – | -0.9 | -0.75 | -0.74 | -0.63 | -0.6 | -0.58 | -0.47 | 0.75 | 0.38 | 0 | -0.81 | Growth Rate (U2OS; 12 h, replicate number 1): 0.89; Growth Rate (U2OS; 18 h, replicate number 1): 0.45; Growth Rate (Fibroblast; 6 h, replicate number 2): -0.38; Growth Rate (Fibroblast; 12 h, replicate number 1): -0.79; Growth Rate (Fibroblast; 18 h, replicate number 2): 0.1; Growth Rate (Fibroblast; 24 h, replicate number 1): 0.11 |
| Nc1nccc(-c2ccn3c(N)nccc23)n1 | – | -0.76 | – | -0.56 | 0.88 | 0.9 | – | – | -0.48 | – | – | – | – | – | 0.97 | – | – | – | – | – | Growth Rate (U2OS; 12 h, replicate number 1): 0.76; Growth Rate (U2OS; 18 h, replicate number 1): 0.84; Growth Rate (Fibroblast; 12 h, replicate number 1): -0.17; Growth Rate (Fibroblast; 18 h, replicate number 1): 0.49 |
| CCN1C(=CC(C)=O)Sc2ccc(OC)cc21 | – | – | – | 0.95 | 0.98 | – | – | – | 0.69 | 0.47 | 0.47 | 0.28 | 0.25 | 0.43 | 0.2 | 0.46 | 0.9 | – | – | 0.07 | Growth Rate (Fibroblast; 0 h, replicate number 2): 0.16; Growth Rate (Fibroblast; 6 h, replicate number 2): 0.95 |
| O=C1NC(=Nc2c(Cl)cccc2Cl)S/C1=C\c1ccc2nccnc2c1 | 0.01 | – | 0.8 | 0.08 | 0.49 | – | 0.96 | – | 0.44 | – | 0.48 | 0.26 | 0.44 | 0.35 | 0.52 | 0.45 | 0.38 | 0.64 | 0.75 | 0.02 | Growth Rate (U2OS; 6 h, replicate number 1): 0.4; Growth Rate (U2OS; 6 h, replicate number 2): 0.31; Growth Rate (U2OS; 18 h, replicate number 1): 0.81; Growth Rate (Fibroblast; 6 h, replicate number 2): 0.92 |
| COC[C@@H](CC(C)C)NC1=N/C(=C\c2ccc3ncsc3c2)C(=O)N1C | 0.04 | – | 0.37 | 0.16 | – | -0.97 | 0.07 | 0.51 | 0.12 | 0.4 | -0.18 | 0.3 | 0.35 | 0.69 | 0.68 | 0.6 | 0.64 | 0.37 | 0.28 | 0.37 | Growth Rate (U2OS; 12 h, replicate number 1): 0.73; Growth Rate (U2OS; 18 h, replicate number 1): 0.43; Growth Rate (Fibroblast; 6 h, replicate number 2): 0.03; Growth Rate (Fibroblast; 18 h, replicate number 1): 0.63; Growth Rate (Fibroblast; 18 h, replicate number 2): 0.3 |
| O=C(Nc1cc(-c2cn[nH]c2)ccc1N1CCOCC1)c1ccc(-c2ccc3ncccc3c2)o1 | – | -0.65 | 0.44 | 0.85 | -0.23 | -1 | 0.42 | 0.77 | 0.49 | -0.29 | -0.07 | -0.19 | 0.02 | 0.04 | -0.01 | 0.06 | 0.75 | – | 0.4 | -0.44 | Growth Rate (U2OS; 18 h, replicate number 1): 0.39; Growth Rate (Fibroblast; 18 h, replicate number 2): 0.64 |
| O=C1NC(NC23CC4CC(CC(C4)C2)C3)=N/C1=C\c1ccc2ncsc2c1 | 0.86 | -0.34 | 0.82 | -0.45 | 0.57 | -1 | – | – | -0.26 | – | 0.28 | 0.34 | 0.06 | 0.09 | 0.08 | 0.05 | – | 0.87 | 0.52 | – | Growth Rate (Fibroblast; 0 h, replicate number 2): 0.76 |
| Cc1ccccc1C1C(=O)N(C)c2cnc(Nc3ccc(S(N)(=O)=O)cc3)nc2N1C (centres undefined) | -0.73 | -0.83 | – | -0.37 | -0.58 | -1 | – | – | -0.88 | – | – | – | – | – | – | – | – | – | – | – | Growth Rate (Fibroblast; 0 h, replicate number 2): -0.9 |
| CN(C)Cc1cccc(NC(=C2C(=O)Nc3cc(C(N)=O)ccc32)c2ccccc2)c1 | – | -0.78 | – | 0.9 | -0.09 | – | 0.87 | – | -0.24 | – | – | – | – | – | – | – | – | – | – | – | Growth Rate (Fibroblast; 6 h, replicate number 2): 0.24; Growth Rate (Fibroblast; 12 h, replicate number 1): -0.97; Growth Rate (Fibroblast; 18 h, replicate number 1): -0.83; Growth Rate (Fibroblast; 24 h, replicate number 1): 0.13 |
| CC1=NC(C=C2C(=O)Nc3ccc(F)cc32)=C(C)C1C(=O)NCC(O)CN1CCOCC1 (centres undefined) | – | -0.99 | – | 0.76 | 0.4 | -0.99 | – | – | -0.67 | – | – | – | – | – | – | 0.99 | – | – | – | – | – |

— ChEMBL document CHEMBL5303304, “EUbOPEN Chemogenomics Library - IncuCyte” (2023)
